Experimental findings from patent US20250129021A1, “SMALL MOLECULE PROTEIN SYNTHESIS MODULATORS” (Interdict Bio, Inc., priority 2023, published 2025) are described below.

Broadly, the IC50 is the midpoint of a concentration-inhibition curve.

Common to all, as to format: biochemical
The subject of assay [1] is CCNTB1. Kind of assay: In vitro transcription-translation (IVTT) assay, CCNTB1 reporter. The note with it: HeLa S3 lysate, sfGFP/mCherry ratio. As for the experimental part: In vitro transcription-translation assay setup: Each assay includes a master mix containing lysate and shared components, a 96-well plate containing compound titrations for testing, a 96-well DNA plate with reporter constructs to be tested, 96-well skirted PCR plates, and 96-well flat-bottom, black, fluorescent assay plates. Reaction materials setup: (A) Master mix—15 mL conical tube (3 mL of HeLa S3 Lysate described above; 0.6 mL of ThermoFisher Accessory Proteins (#88882); 1.2 ml of ThermoFisher Reaction Mix (#88882); 0.54 mL of nuclease-free Water); (B) 96-Well Master Mix+Compound Plate (Half-log dilutions (30 μM−0.1 μM) of 4 compounds of interest are prepared in 100% DMSO); 96-Well DNA Plate (Five DNA constructs are plated into single columns within the plate. Row 1 of the column contains nuclease free H2O, all other wells contain 110 ng/μL plasmid DNA). Reactions are started by mixing 155 μL of master mix and 3.5 μL of compound serial dilutions, then 9.1 μL of master mix+compound mixture is aliquoted across 5 96-well plates. Reactions begin with final addition of 2 μL of DNA for a 11.1 μL reaction volume in each well. The entire plate is sealed, and incubated for 2 hrs at 30° C. After 2 hrs, quench the assay using 45 μL of PBS, and transfer 50 μL to a flat-bottom black microplate Quantify the sfGFP and mCherry signals from each well on each plate, taking 3 reads of each plate, and perform data analysis below.
In vitro transcription-translation assay data analysis: Each plate is read three times in channels for both sfGFP and mCherry signals. The average signal across these 3 reads is then calculated for further analysis. Control wells containing no DNA reporter are subtracted from reporter wells in the same column to remove auto-fluorescence of the lysate. Then, the ratio of sfGFP/mCherry is calculated per well, and these ratios are averaged across the triplicate experiments on the same plate. Finally, the ratio of each titration concentration is normalized to the no drug control to create the normalized stalling metric. The error on this measurement is determined by propagating error through the averaging and normalization steps. Values are plotted and fit for IC50 determination for each test sequence and titration of compound.

Assay [2] relates to MCL-1. Kind of assay: In vitro transcription-translation (IVTT) assay, MCL-1 reporter. The note with it: IVTT assay, HeLa S3 lysate, sfGFP/mCherry ratio; read-out: MCL1 IC50. A digest of the protocol:
(§1)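 Reporter: mCherry, P2A, then 3×FLAG-target peptide-sfGFP fusion, IRES-initiated; HeLa S3 lysate IVTT; cpd dilutions 30 μM−0.1 μM half-log in 100% DMSO (dilution-plate conc); DNA added last; 2 h, 30° C; PBS quench.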

Assay [3] deals with MYC. The assay is described as follows: In vitro transcription-translation (IVTT) assay, MYC reporter. The note with it: IVTT assay, HeLa S3 lysate, MYC reporter, normalized sfGFP/mCherry ratio; half-log dilutions 30 μM-0.1 μM, 2 hrs at 30° C. An outline of the steps: as §1
In assay [4] the test system is CCND1. Kind of assay: In vitro transcription-translation (IVTT) assay, CCND1 reporter. Particulars: IVTT assay, HeLa S3 lysate, sfGFP/mCherry ratio. A digest of the protocol: as §1

Consider `COc1ccc(C[C@H]2NC[C@H](O)[C@H]2OC(=O)NCC[C@H]2CCC3(CC3)N2)cc1` [V192043, (2R,3S,4S)-4-hydroxy-2-[(4-methoxyphenyl)methyl]pyrrolidin-3-yl N-{2-[(5R)-4-azaspiro[2.4]heptan-5-yl]ethyl}carbamate], for which the IC50 in assay [1], in assay [2], in assay [3] and in assay [4] was greater than 30 µM in each case.
As to `COc1ccc(C[C@H]2NC[C@H](O)[C@H]2OC(=O)NCC[C@H]2CCCNC2)cc1` [V192046, (2R,3S,4S)-4-hydroxy-2-[(4-methoxyphenyl)methyl]pyrrolidin-3-yl N-{2-[(3R)-piperidin-3-yl]ethyl}carbamate], the IC50 in assay [1] was less than 10 µM; in assay [2], less than 10 µM; in assay [3] it was less than 10 µM; in assay [4], 10 to 20 µM.
Consider `O=C(NCC[C@H]1CCCN1)O[C@@H]1[C@@H](O)CN[C@@H]1Cc1ccc(-c2cnco2)cc1` [V192048, (2R,3S,4S)-4-hydroxy-2-{[4-(1,3-oxazol-5-yl)phenyl]methyl}pyrrolidin-3-yl N-{2-[(2R)-pyrrolidin-2-yl]ethyl}carbamate], for which the IC50 in assay [1], in assay [2], in assay [3] and in assay [4] was less than 10 µM in each case.
On to `O=C(NCCC1CCNCC1)O[C@@H]1[C@@H](O)CN[C@@H]1Cc1ccc(-c2ccccc2)cc1` [V192050, (2R,3S,4S)-2-{[1,1′-biphenyl]-4-ylmethyl}-4-hydroxypyrrolidin-3-yl N-[2-(piperidin-4-yl)ethyl]carbamate], for which the concentration for half-maximal inhibition (IC50) was 10 to 20 µM in assay [1], 10 to 20 µM in assay [2], 10 to 20 µM in assay [3] and greater than 30 µM in assay [4].
In the case of `O=C(NCCC1CCNCC1)O[C@@H]1[C@@H](O)CN[C@@H]1Cc1ccc(-c2ccc(F)c(F)c2)cc1` [V192051, (2R,3S,4S)-2-({3′,4′-difluoro-[1,1′-biphenyl]-4-yl}methyl)-4-hydroxypyrrolidin-3-yl N-[2-(piperidin-4-yl)ethyl]carbamate], the IC50 in assay [1], in assay [2], in assay [3] and in assay [4] was less than 10 µM in each case.
On to `O=C(NCCC1CCNCC1)O[C@@H]1[C@@H](O)CN[C@@H]1Cc1ccc(-c2ccc(C(F)(F)F)cc2)cc1` [V192052, (2R,3S,4S)-4-hydroxy-2-{[4′-(trifluoromethyl)-[1,1′-biphenyl]-4-yl]methyl}pyrrolidin-3-yl N-[2-(piperidin-4-yl)ethyl]carbamate], for which the IC50 in assay [1], in assay [2], in assay [3] and in assay [4] was greater than 30 µM in each case.
For the compound `O=C(NCCC1CCNCC1)O[C@@H]1[C@@H](O)CN[C@@H]1Cc1ccc(-c2ccc3c(c2)CC(F)(F)C3)cc1` [V192053, (2R,3S,4S)-2-{[4-(2,2-difluoro-1,3-dihydroinden-5-yl)phenyl]methyl}-4-hydroxypyrrolidin-3-yl N-[2-(piperidin-4-yl)ethyl]carbamate], the 50% inhibitory concentration (IC50) in assay [1] is 10 to 20 µM; in assay [2], 20 to 30 µM; in assay [3] it was greater than 30 µM; in assay [4], greater than 30 µM.
As to `O=C(NCc1ccc2c(c1)CCNC2)O[C@@H]1[C@@H](O)CN[C@@H]1Cc1ccc(-c2cnco2)cc1` [V192056, (2R,3S,4S)-4-hydroxy-2-{[4-(1,3-oxazol-5-yl)phenyl]methyl}pyrrolidin-3-yl N-(1,2,3,4-tetrahydroisoquinolin-6-ylmethyl)carbamate], the IC50 in assay [1], in assay [2], in assay [3] and in assay [4] was less than 10 µM each time.
In the case of `O=C(NCc1ccc2c(c1)CCNC2)O[C@@H]1[C@@H](O)CN[C@@H]1Cc1ccc(-c2ccc(C(F)(F)F)cc2)cc1` [V192058, (2R,3S,4S)-4-hydroxy-2-{[4′-(trifluoromethyl)-[1,1′-biphenyl]-4-yl]methyl}pyrrolidin-3-yl N-(1,2,3,4-tetrahydroisoquinolin-6-ylmethyl)carbamate], the half-maximal inhibitory concentration (IC50) in assay [1] was 20 to 30 µM; in assay [2], greater than 30 µM; in assay [3], greater than 30 µM; in assay [4], greater than 30 µM.
With `O=C(NCc1ccc2c(c1)CCNC2)O[C@@H]1[C@@H](O)CN[C@@H]1Cc1ccc(-c2ccc(S(F)(F)(F)(F)F)cc2)cc1` [V192059, (2R,3S,4S)-4-hydroxy-2-{[4′-(pentafluoro-lambda6-sulfanyl)-[1,1′-biphenyl]-4-yl]methyl}pyrrolidin-3-yl N-(1,2,3,4-tetrahydroisoquinolin-6-ylmethyl)carbamate], the 50% inhibitory concentration (IC50) in assay [1], in assay [2], in assay [3] and in assay [4] was greater than 30 µM throughout.
For the compound `O=C(NCc1ccc2c(c1)CCNC2)O[C@@H]1[C@@H](O)CN[C@@H]1Cc1ccc(-c2ccc3c(c2)CC(F)(F)C3)cc1` [V192060, (2R,3S,4S)-2-{[4-(2,2-difluoro-1,3-dihydroinden-5-yl)phenyl]methyl}-4-hydroxypyrrolidin-3-yl N-(1,2,3,4-tetrahydroisoquinolin-6-ylmethyl)carbamate], the half-inhibitory concentration (IC50) in assay [1] was less than 10 µM; in assay [2] it was less than 10 µM; in assay [3], less than 10 µM; in assay [4] it was 20 to 30 µM.
Consider `COc1ccc(C[C@H]2NC[C@H](O)[C@H]2OC(=O)NCc2ccnc(N3CC(F)(F)C3)c2)cc1` [V192066, (2R,3S,4S)-4-hydroxy-2-[(4-methoxyphenyl)methyl]pyrrolidin-3-yl N-{[2-(3,3-difluoroazetidin-1-yl)pyridin-4-yl]methyl}carbamate], for which the IC50 is 10 to 20 µM in assay [1], less than 10 µM in assay [2], less than 10 µM in assay [3] and less than 10 µM in assay [4].
Turning to `COc1ccc(C[C@H]2NC[C@H](O)[C@H]2OC(=O)NCc2ccnc(N3CC(O)C3)c2)cc1` [V192067, (2R,3S,4S)-4-hydroxy-2-(4-methoxybenzyl)pyrrolidin-3-yl ((2-(3-hydroxyazetidin-1-yl)pyridin-4-yl)methyl)carbamate], the 50% inhibitory concentration (IC50) was 10 to 20 µM in assay [1], less than 10 µM in assay [2], less than 10 µM in assay [3] and less than 10 µM in assay [4].
Turning to `COc1ccc(C[C@H]2NC[C@H](O)[C@H]2OC(=O)NCc2ccnc(N3CC4(CCC4)C3)c2)cc1` [V192068, (2R,3S,4S)-4-hydroxy-2-[(4-methoxyphenyl)methyl]pyrrolidin-3-yl N-[(2-{2-azaspiro[3.3]heptan-2-yl}pyridin-4-yl)methyl]carbamate], the half-maximal inhibitory concentration (IC50) in assay [1] was less than 10 µM; in assay [2] it was less than 10 µM; in assay [3] it was less than 10 µM; in assay [4], 10 to 20 µM.
Consider `COc1ccc(C[C@H]2NC[C@H](O)[C@H]2OC(=O)NCc2ccc(C3(N)CC3)cc2)cc1` [V192069, (2R,3S,4S)-4-hydroxy-2-[(4-methoxyphenyl)methyl]pyrrolidin-3-yl N-{[4-(1-aminocyclopropyl)phenyl]methyl}carbamate], for which the IC50 in assay [1], in assay [2], in assay [3] and in assay [4] was less than 10 µM throughout.
Regarding `O=C(NCc1ccnc(N2CCC2)c1)O[C@@H]1[C@@H](O)CN[C@@H]1Cc1ccc(-c2ccc(C(F)(F)F)cc2)cc1` [V192071, (2R,3S,4S)-4-hydroxy-2-((4′-(trifluoromethyl)-[1,1′-biphenyl]-4-yl)methyl)pyrrolidin-3-yl ((2-(azetidin-1-yl)pyridin-4-yl)methyl)carbamate], the IC50 was 20 to 30 µM in assay [1], 20 to 30 µM in assay [2], 20 to 30 µM in assay [3] and greater than 30 µM in assay [4].
On to `COc1ccc(C[C@H]2NC[C@H](O)[C@H]2OC(=O)NCc2ccnc(N3CCC3)n2)cc1` [V192073, (2R,3S,4S)-4-hydroxy-2-[(4-methoxyphenyl)methyl]pyrrolidin-3-yl N-{[2-(azetidin-1-yl)pyrimidin-4-yl]methyl}carbamate], for which the IC50 in assay [1], in assay [2], in assay [3] and in assay [4] was less than 10 µM throughout.
